Legend:
Design in all cases: species or system human
[1] = Enhancement of Luo Han Guo sweetness (flavor profile); details: Luo Han Guo solution (120 ppm), all levels tested
Text: (§1) The term “sweetness” or “sweetness intensity” is understood to mean the relative strength of sweet sensation as observed or experienced by an individual, e.g., a human, or a degree or amount of sweetness detected by a taster, for example on the scale from 0 (none) to 8 (very strong) used in sensory evaluations according to the procedure described in American Society for Testing Materials, Special Technical Publication-434: “Manual on Sensory Testing Methods,” ASTM International, West Conshohocken, Pa. (1996).
A Luo Han Guo (Biovittoria Ltd., New Zealand) solution was prepared in water (120 ppm). Ligustrosidic acid and 2′-hydroxy ligustrosidic acid solutions were prepared as above (EXAMPLE II). The flavor profile of the Luo Han Guo solution with added ligustrosidic acid and 2′-hydroxy ligustrosidic acid is reported in the following:
(§2) Solutions of sucrose (4%) and Luo Han Guo (120 ppm) were prepared as above (EXAMPLE II and III). In addition, solutions of fructose (3.4%), Reb A (GLG Life Tech Corporation, Canada) (90 ppm) and GSG (Glucosyl Steviol Glucosides, GLG Life Tech Corporation, Canada) (200 ppm) were also prepared in water.
The Luo Han Guo solution (120 ppm) with the addition of various amount of Carica papaya leave extract was evaluated.

[2] = Enhancement of sucrose sweetness (flavor profile of sucrose solution with added substance); details: sucrose solution (4%), all levels tested
Text: as §1
(§3) A sucrose solution (4%) was prepared in water. Each of ligustrosidic acid and 2′-hydroxy ligustrosidic acid solutions of different concentrations was prepared in ethanol solution in water (50%). Ligustrosidic acid and 2′-hydroxy ligustrosidic acid were evaluated at 1 and 200 ppm, respectively.
The flavor profile of the sucrose solution with added ligustrosidic acid and 2′-hydroxy ligustrosidic acid is reported in the following:
as §2
The sucrose solution (4%) with the addition of various amount of Carica papaya leave extract was evaluated.

[3] = Taste and smell of the compounds alone
Protocol: as §3

SMILES | Overall effect on Luo Han Guo sweetness (summary in words) ([1]; listed as Ligustrosidic acid) | Overall effect on Luo Han Guo sweetness (summary in words) ([1]; listed as ligustrosidic acid) | Overall effect on sucrose sweetness (summary in words) ([2]; listed as Ligustrosidic acid) | Overall effect on sucrose sweetness (summary in words) ([2]; listed as ligustrosidic acid) | Taste and smell of the compound alone ([3]; evaluated at 1 ppm) | Overall effect on Luo Han Guo sweetness (summary in words) [1] | Overall effect on sucrose sweetness (summary in words) [2] | Taste and smell of the compound alone ([3]; evaluated at 200 ppm)
COC(=O)C1=COC(OC2OC(CO)C(O)C(O)C2O)C(=CC(=O)O)C1CC(=O)OCCc1ccc(O)cc1 (stereo in doubt) [Ligustrosidic Acid, [3-(carboxymethylene)-2-(β-D-glucopyranosyloxy)-3,4-dihydro-5-(methoxycarbonyl)]-2H-pyran-4-acetic acid-α-[2-(4-hydroxyphenyl)ethyl]ester] | particularly strong effect | enhanced overall sweetness, body and mouthfeel | particularly strong effect | enhanced overall sweetness, body and mouthfeel | devoid of taste and smell |  |  | 
COC(=O)C1=COC(OC2OC(CO)C(O)C(O)C2O)/C(=C\C(=O)O)C1CC(=O)OCCc1ccc(O)c(O)c1 (centres unmarked) [2′-Hydroxy Ligustrosidic Acid, 2′-hydroxy ligustrosidic acid] |  |  |  |  |  | strong effect in sweetness enhancement | strong effect in sweetness enhancement | devoid of taste and smell

From patent US20210251267A1, “LIGUSTROSIDIC ACID AND DERIVATIVES THEREOF FOR SWEETNESS ENHANCEMENT” (International Flavors & Fragrances Inc., priority 2018, published 2021)
